Measurements published in US6506749B2, “7-oxo-pyridopyrimidines (I)” (Syntex (U.S.A.) LLC, priority 2000, dated 2003).
Where a name gives a salt, the structure may show the parent alone.

First: Cl.O=c1[nH]c2nc(NC3(CO)CCCC3)ncc2cc1-c1ccccc1Cl
Second: Cl.Cn1c(=O)c(-c2ccccc2Cl)cc2cnc(NC3(CO)CCCCC3)nc21
The melting point of the first is higher: 290 to 293 °C for the first, 185 to 188.6 °C for the second.

`Cl.Cn1c(=O)c(-c2ccccc2Cl)cc2cnc(N[C@H]3CC[C@@](C)(O)CC3)nc21` and `Cn1c(=O)c(-c2ccccc2Cl)cc2cnc(N[C@H]3CC[C@H](O)CC3)nc21` (as salt: salt) [Cpd 1] cannot be ordered by melting point: 156 to 169 °C for the first, 163.4 to 171.1 °C for the second.

First: CC(CCO)Nc1ncc2cc(-c3ccccc3Cl)c(=O)n(C)c2n1.Cl (centres unmarked)
Second: CCS(=O)(=O)CCC(C)Nc1ncc2cc(-c3ccccc3Cl)c(=O)n(C)c2n1 (centres unmarked) (as salt: hydrochloride) [Example 102]
The melting point of the first is higher: 180.7 to 189.2 °C for the first, 160.1 to 167 °C for the second.

First: Cl.O=c1c(-c2ccccc2Cl)cc2cnc(N[C@H]3CC[C@H](O)CC3)nc2n1C1CC1
Second: Cl.O=c1c(-c2ccccc2Cl)cc2cnc(N[C@H]3CC[C@H](O)CC3)nc2n1CCO
The melting point of the first is higher: 241.7 to 242.3 °C for the first, 210.5 to 212 °C for the second.

First: Cl.O=c1[nH]c2nc(N[C@H]3CC[C@H](O)CC3)ncc2cc1-c1ccccc1Cl
Second: Cl.O=c1[nH]c2nc(NCC3CCC(O)CC3)ncc2cc1-c1ccccc1Cl (centres unmarked)
The melting point of the first is lower: 191.1 to 194.3 °C for the first, 205 to 213 °C for the second.

First: CN(C)S(=O)(=O)N[C@H]1CC[C@H](Nc2ncc3cc(-c4ccccc4Cl)c(=O)[nH]c3n2)CC1.Cl
Second: Cl.Cn1c(=O)c(-c2ccccc2Cl)cc2cnc(N[C@H]3CC[C@H](NS(C)(=O)=O)CC3)nc21
The melting point of the first is higher: 262.2 to 262.5 °C for the first, 260.9 to 261.1 °C for the second.

First: CN1CCN(Nc2ncc3cc(-c4ccccc4Cl)c(=O)n(C)c3n2)CC1 [Example 85]
Second: Cl.Cn1c(=O)c(-c2ccccc2Cl)cc2cnc(NN3CCN(CCO)CC3)nc21
The melting point of the first is lower: 125.7 to 128.1 °C for the first, 274.4 to 274.8 °C for the second.

Compared with `Cn1c(=O)c(-c2ccccc2Cl)cc2cnc(NC3CCSCC3)nc21` (as salt: HCl) [Example 78, 2-(4-tetrahydrothiopyranylamino)-6-(2-chlorophenyl)-8-methyl-8H-pyrido[2,3-d]pyrimidin-7-one], `Cn1c(=O)c(-c2ccccc2Cl)cc2cnc(N[C@H]3CC[C@H](N)CC3)nc21` (as salt: hydrochloride) [Example 13, 2-(trans-4-aminocyclohexylamino)-6-(2-chlorophenyl)-8-methyl-pyrido[2,3-d]pyrimidin-7-one] is lower in melting point: 232.1 to 233.1 °C for the first, 190.3 to 191.4 °C for the second.

First: Cl.Nn1c(=O)c(-c2ccccc2Cl)cc2cnc(NC3CCOCC3)nc21
Second: Cl.N#CCn1c(=O)c(-c2ccccc2Cl)cc2cnc(NC3CCOCC3)nc21
The melting point of the first is lower: 207.1 to 215.9 °C for the first, 230.2 to 230.4 °C for the second.

Compared with `CS(=O)(=O)N1CCC(Nc2ncc3cc(-c4ccccc4Cl)c(=O)n(CC(F)(F)F)c3n2)CC1.Cl`, `CS(=O)(=O)N1CCC(Nc2ncc3cc(-c4ccccc4Cl)c(=O)n(N)c3n2)CC1.Cl` is higher in melting point: 148.6 to 151.6 °C for the first, 180.7 to 213.2 °C for the second.

Compared with `Cc1ccccc1-c1cc2cnc(NC3CCN(S(C)(=O)=O)CC3)nc2n(C)c1=O.Cl`, `Cl.Cn1c(=O)c(-c2ccccc2F)cc2cnc(NC3CCN(S(C)(=O)=O)CC3)nc21` is lower in melting point: 221.4 to 221.8 °C for the first, 205 to 207.5 °C for the second.

First: COc1ccccc1-c1cc2cnc(NC3CCN(S(=O)(=O)C(C)C)CC3)nc2n(C)c1=O.Cl
Second: Cc1ccccc1-c1cc2cnc(NC3CCN(S(=O)(=O)C(C)C)CC3)nc2n(C)c1=O.Cl
The melting point of the first is higher: 157 to 163.1 °C for the first, 142 to 149 °C for the second.

First: CC1C(=O)C(c2ccccc2Cl)=Cc2cnc(NOCc3ccccc3)nc21.Cl (centres unmarked)
Second: O=c1c(-c2ccccc2Cl)cc2cnc(N[C@H]3CC[C@H](O)CC3)nc2n1Cc1ccccc1 (as salt: HCl) [Example 41]
The melting point of the first is lower: 199.2 to 199.5 °C for the first, 202 to 206 °C for the second.

Compared with `Cl.Cn1c(=O)c(-c2ccccc2Cl)cc2cnc(NC3CCN(C(N)=O)CC3)nc21`, `Cl.Cn1c(=O)c(-c2ccccc2Cl)cc2cnc(NC3CCN(C=O)CC3)nc21` is lower in melting point: 192 to 202 °C for the first, 143 to 148 °C for the second.

First: CS(=O)(=O)N1CCC(Nc2ncc3cc(-c4ccccc4Cl)c(=O)n(-c4ccc(F)cc4)c3n2)CC1 (as salt: HCl) [Example 96]
Second: Cl.Cn1c(=O)c(-c2ccccc2Cl)cc2cnc(NC3CCN(S(C)(=O)=O)CC3)nc21
The melting point of the first is lower: 165 to 169 °C for the first, 185 to 194 °C for the second.

First: CCn1c(=O)c(-c2ccccc2Cl)cc2cnc(NC3CCS(=O)(=O)CC3)nc21.Cl
Second: Cl.O=c1c(-c2ccccc2Cl)cc2cnc(NC3CCS(=O)(=O)CC3)nc2n1CCO
The melting point of the first is higher: 285.2 to 286.7 °C for the first, 182 to 186 °C for the second.

First: Cn1c(=O)c(-c2ccccc2Cl)cc2cnc(N[C@H]3CC[C@H](NS(C)(=O)=O)CC3)nc21 (as salt: hydrochloride) [Example 14, 2-(trans-4-methanesulfonylaminocyclohexylamino)-6-(2-chlorophenyl)-8-methyl-pyrido[2,3-d]pyrimidin-7-one]
Second: Cn1c(=O)c(-c2ccccc2Cl)cc2cnc(N[C@H]3CC[C@H](N)CC3)nc21 (as salt: HCl) [Example 38]
The melting point of the first is higher: 260.9 to 261.1 °C for the first, 163.4 to 171.1 °C for the second.

First: COc1ccccc1-c1cc(/C=N\C(=N)NC2CCOCC2)cn(C)c1=O.Cl
Second: Cl.Cn1cc(/C=N\C(=N)NC2CCOCC2)cc(-c2ccccc2N)c1=O
The melting point of the first is higher: 212 to 213.7 °C for the first, 210.7 to 211.9 °C for the second.

First: O=C1CCC(Nc2ncc3cc(-c4ccccc4Cl)c(=O)n(CC(F)(F)F)c3n2)CC1 (as salt: hydrochloride) [Example 59]
Second: O=c1c(-c2ccccc2Cl)cc2cnc(N[C@H]3CC[C@H](O)CC3)nc2n1CC(F)(F)F [Example 55]
The melting point of the first is higher: 251.2 to 252 °C for the first, 227.2 to 230.4 °C for the second.

First: CCCS(=O)(=O)N1CCC(Nc2ncc3cc(-c4ccccc4Cl)c(=O)n(C)c3n2)CC1.Cl
Second: CCS(=O)(=O)N1CCC(Nc2ncc3cc(-c4ccccc4Cl)c(=O)n(C)c3n2)CC1.Cl
The melting point of the first is higher: 193.3 to 194.1 °C for the first, 144 to 150 °C for the second.

First: CCS(=O)(=O)N1CCC(Nc2ncc3cc(-c4ccccc4F)c(=O)n(C)c3n2)CC1.Cl
Second: CCCS(=O)(=O)N1CCC(Nc2ncc3cc(-c4ccccc4F)c(=O)n(C)c3n2)CC1.Cl
The melting point of the first is lower: 192.5 to 195 °C for the first, 206 to 209 °C for the second.

Compared with `CCCS(=O)(=O)N1CCC(Nc2ncc3cc(-c4ccccc4OC)c(=O)n(C)c3n2)CC1.Cl`, `COc1ccccc1-c1cc2cnc(NC3CCN(S(=O)(=O)C(F)(F)F)CC3)nc2n(C)c1=O.Cl` is higher in melting point: 59.7 to 63.8 °C for the first, 140.8 to 147.3 °C for the second.

First: Cn1c(=O)c(-c2ccccc2Cl)cc2cnc(NC3CCC4(CC3)OCCCO4)nc21 [Cpd 8]
Second: Cl.Cn1c(=O)c(-c2ccccc2Cl)cc2cnc(NC3CCC4(CC3)OCC(CO)CO4)nc21 (centres unmarked)
The melting point of the first is higher: 196.1 to 196.5 °C for the first, 146 to 150 °C for the second.

First: Cl.Cn1c(=O)c(-c2ccccc2Cl)cc2cnc(NC3CCC(CO)CC3)nc21 (centres unmarked)
Second: CO[C@H]1CC[C@H](Nc2ncc3cc(-c4ccccc4Cl)c(=O)n(C)c3n2)CC1.Cl
The melting point of the first is lower: 153.6 to 157 °C for the first, 218.2 to 218.5 °C for the second.

First: COC(=O)CN1CCC(Nc2ncc3cc(-c4ccccc4Cl)c(=O)n(C)c3n2)CC1.Cl
Second: Cl.Cn1c(=O)c(-c2ccccc2Cl)cc2cnc(NC3CCN(CC(F)(F)F)CC3)nc21
The melting point of the first is lower: 150 to 168 °C for the first, 180 to 183 °C for the second.

First: COC(=O)O[C@H]1CC[C@H](Nc2ncc3cc(-c4ccccc4Cl)c(=O)n(C)c3n2)CC1.Cl
Second: Cl.Cn1c(=O)c(-c2ccccc2Cl)cc2cnc(N[C@H]3CC[C@H](OC(N)=O)CC3)nc21
The melting point of the first is lower: 213.9 to 214.4 °C for the first, 234.7 to 235.4 °C for the second.

`Cl.Nn1c(=O)c(-c2ccccc2Cl)cc2cnc(NC3CCS(=O)(=O)CC3)nc21` and `Cc1ccccc1-c1cc2cnc(NC3CCS(=O)(=O)CC3)nc2n(C)c1=O.Cl` cannot be ordered by melting point: 240 to 243 °C for the first, 240 to 258 °C for the second.

First: Cl.O=c1c(-c2ccccc2Cl)cc2cnc(NC3CCOCC3)nc2n1CCO
Second: CC(C)(O)Cn1c(=O)c(-c2ccccc2Cl)cc2cnc(NC3CCOCC3)nc21 [Cpd 117]
The melting point of the first is higher: 217 to 220 °C for the first, 189 to 191.5 °C for the second.

Compared with `Cl.Cn1c(=O)c(-c2ccccc2F)cc2cnc(NC3CCN(S(=O)(=O)CC(F)(F)F)CC3)nc21`, `Cl.Cn1c(=O)c(-c2ccccc2F)cc2cnc(NC3CCN(S(=O)(=O)C(F)(F)F)CC3)nc21` is lower in melting point: 225.9 to 226.4 °C for the first, 213.5 to 221 °C for the second.

`CS(=O)(=O)N1CCC(Nc2ncc3cc(-c4ccccc4Cl)c(=O)n(C4CC4)c3n2)CC1` (as salt: hydrochloride) [Example 88] and `CC(C)S(=O)(=O)N1CCC(Nc2ncc3cc(-c4ccccc4Cl)c(=O)n(C)c3n2)CC1.Cl` cannot be ordered by melting point: 128 to 141.5 °C for the first, 132 to 136 °C for the second.

First: Cc1ccccc1-c1cc2cnc(NC3CCN(S(=O)(=O)C(F)(F)F)CC3)nc2n(C)c1=O.Cl
Second: Cl.Cn1c(=O)c(-c2ccccc2Cl)cc2cnc(NC3CCN(S(=O)(=O)C(F)(F)F)CC3)nc21
The melting point of the first is higher: 153 to 162 °C for the first, 134 to 140 °C for the second.

Compared with `Cn1c(=O)c(-c2ccccc2Cl)cc2cnc(NC3CCC(OC=O)CC3)nc21` (centres unmarked) [Cpd 4], `COC1CCC(Nc2ncc3cc(-c4ccccc4Cl)c(=O)n(C)c3n2)CC1.Cl` (centres unmarked) is lower in melting point: 196.1 to 196.6 °C for the first, 189 to 192 °C for the second.

First: CO[C@H]1CC[C@H](N(C)c2ncc3cc(-c4ccccc4Cl)c(=O)n(C)c3n2)CC1.Cl
Second: CCOC(=O)C1CCC(Nc2ncc3cc(-c4ccccc4Cl)c(=O)n(C)c3n2)CC1.Cl (centres unmarked)
The melting point of the first is lower: 182.3 to 183.1 °C for the first, 192.1 to 198.3 °C for the second.

Compound `Cl.Cn1c(=O)c(-c2ccccc2Cl)cc2cnc(NC3CCC(C(=O)O)CC3)nc21` (centres unmarked) has a melting point of 263.6 to 264.2 °C.

With `Cl.O=c1[nH]c2nc(NC3CCNCC3)ncc2cc1-c1ccccc1Cl` the melting point was over 300 °C.
Work on `C[C@H](Nc1ncc2cc(-c3ccccc3Cl)c(=O)n(N)c2n1)C(C)(C)O.Cl` yielded a melting point of over 300 °C.
`O=CO[C@H]1CC[C@H](Nc2ncc3cc(-c4ccccc4Cl)c(=O)[nH]c3n2)CC1` [Cpd 19] showed a melting point of over 300 °C.
Compound `Cl.Cn1c(=O)c(-c2ccccc2Cl)cc2cnc(NC3CC(C)(C)NC(C)(C)C3)nc21` has a melting point of over 300 °C.
Compound `N[C@H]1CC[C@H](Nc2ncc3cc(-c4ccccc4Cl)c(=O)[nH]c3n2)CC1` (as salt: salt) [Cpd 17] has a melting point of over 300 °C.
`CS(=O)(=O)N[C@H]1CC[C@H](Nc2ncc3cc(-c4ccccc4Cl)c(=O)[nH]c3n2)CC1.Cl` showed a melting point of over 300 °C.
`Cl.Cn1c(=O)c(-c2ccccc2Cl)cc2cnc(NC3CCC4(CC3)NC(=O)NC4=O)nc21` (centres unmarked) gave a melting point of over 300 °C.
